What was measured:
[1] = system: primary human NSCLC tumors (dissociated cells); experiment: TCA: Compound B-1 with radiation (1-16 Gy), primary NSCLC tumors; assay type: cell-based; parameters: Average Bliss score: scale not given here
Procedure: In both studies, cell viability was assessed after 6 days in culture. Statistical analysis of the combination matrix was performed to assess whether synergy, additivity, or antagonism of the combination treatments were observed.
Materials: Primary patient samples (See Tables 16 and 17, below) were excised from mice when they reached 500 mg to 1000 mg in size and processed immediately, or after overnight shipment. Tumors were serially passaged by subcutaneous implantation of 50 mg to 150 mg fragments into the flanks of immunocompromised (nude) mice. Tumors were used within the first 5 or 7 passages.
Tumor Chemosensitivity Assay (TCA): Primary tumor samples were grown and serially passaged in immunocompromised mice. Tumors were mechanically dissociated into small fragments (1 mm to 2 mm) with scalpels in phosphate buffered saline (PBS or RPMI) and centrifuged at 200×g for 5 minutes at room temperature in 50 mL centrifuge tubes. Samples were resuspended in 10 mL of cell dissociation reagent and enzymatically digested with mechanical agitation for 1 to 3 hours at 37° C., 5% CO2 to a single cell suspension. Ten mL of complete RPMI-1640 media was added to the cell mixture and pipetted up and down 4 to 5 times. The mixture was then passed through a 70 μm or 100 μm mesh strainer to remove undigested tumor. The filtrate was then centrifuged 200×g for 5 minutes at room temperature and resuspended in 20 mL complete RPMI-1640. This cell suspension was slowly layered onto 20 mL of room temperature Histopaque and centrifuged at 400×g for 15 minutes at room temperature without a brake. The interface was transferred to a new 50 mL centrifuge tube and 15 mL of complete RPMI-1640 was added. This suspension was centrifuged at 200×g at room temperature, and the resulting pellet was resuspended in 10 mL of complete PC-1 media, except for pancreatic tumors in which case Pancreatic Medium was used. Cells were diluted in Trypan blue, and viable cells that excluded the dye were counted. Only the larger, tumor cells were included in the cell count. Cells were diluted in complete PC-1 or Pancreatic media, as appropriate for the cells, and were plated at 15,000 to 20,000 cells per well in 100-135 μL in ultra-low attachment U-bottom plates.
Compound Addition: For these studies, a 10 mM stock of the DNA-PK inhibitor (Compound B-1 or Compound B-2) was made in DMSO and used to add to cells from most tumors with HP D300 Digital Dispenser (Tecan US, Morrisville, NC, USA), or diluted into the appropriate media (PC-1 or pancreatic media) as a 5-10× stock and added to cells (OVX001 and ENX001, 005). PC-1, pancreatic media, and chemotherapeutics were also added so that final well volume was 150 μL. Doxorubicin was made as DMSO stock of 1 or 10 mM and added to cells for most tumors with HP D300 Digital Dispenser, or diluted into PC-1 as 5-10× stock and added to cells (OVX001 and ENX001, 005). Cisplatin (cis-diammine platinum(II), dichloride) was prepared fresh to 10 mM in warm (60° C.) distilled water and diluted in PC-1 as a 5-10× stock. […] Different starting concentrations, dose ranges, and number of doses were used for each experiment based on the response data available at the time.
In radiation experiments, a range of 1-16 Gy was administered using a cesium-137 source (GammaCell 40 Exactor, MDS Nordion, Ontario, Canada). These experiments were designed as a 6×5 matrix in triplicate. Each point of a 4-point concentration range of 0.15, 0.73, 1.5 and 2.2 μM Compound B-1 plus a ‘no treatment’ control in triplicate were added to 6 individual plates. The matrix was then assembled by exposure of each plate to 0, 1, 2, 4, 8, or 16 Gy of radiation.
Cells were cultured at 37° C., 5% CO2, 95% air and 100% relative humidity.
Viability Determination: Six days after compound addition, 75 μL of CellTiterGlo (prepared according to manufacturer's protocol) was added to each well of the compound titration plates. […]

[2] = system: pKAP1 and pH2AX levels in A549 cells; experiment: pH2AX and pKAP1 immunoblot, Compound B-1 and etoposide in A549 lung cells; assay type: cell-based, human; conditions: 3 μM Compound B-1 + 10 μM etoposide; at 8 h
Procedure: The human cancer cell lines A549 (CCL-185), DU4475 (HTB-123), MDA-MB-436 (HTB-130), and MDA-MB-468 (HTB-132) were obtained from American Type Culture Collection (ATCC; Manassas, VA).
The A549 human lung cancer cell line was purchased from ATCC and was cultured in DMEM supplemented with 10% fetal bovine serum, 1× non-essential amino acids and 1× Penicillin/Streptomycin (complete medium). Cells were maintained at a subconfluent state by passaging every 2-3 days. Human breast cancer cells lines DU4475, MDA-MB-436, and MDA-MB-468 were purchased from ATCC and cultured in DMEM supplemented with 10% fetal bovine serum, 1× Glutamax and Penicillin/Streptomycin. Cells were maintained at a subconfluent state by passaging every 2-3 days.
Cells were then incubated for the indicated amount of time and harvested for analysis.
A 15-μL aliquot of each SDS-PAGE sample was loaded onto 12-lane 4 20% Tris-Glycine gels and the gels were run at 125v constant voltage until the dye front reached the bottom (approximately 2 h). Following electrophoresis, separated proteins in the gels were transferred to a nitrocellulose membrane. Transfer was carried out for 2 h at 1.5 A constant current in a cold room using a Hoefer transfer apparatus (Model TE42 or TE62, Hoefer Inc, Holliston, MA) according to manufacturer's instructions. […]

CNC(=O)c1ccnc2c([C@H](C)CNc3cc(-c4cnc(C)nc4)ncn3)cccc12 [Compound B-1]
tumors that showed synergy or additivity ([1]; 9 NSCLC tumors): 100%
tumors that showed strong synergy ([1]; three of 9 NSCLC tumors): 33%
Average Bliss score ([1]; tumor OD26131, Lung (NSCLC)): 12
Synergy/Additivity/Antagonism ([1]; tumor OD26131, Lung (NSCLC)): Strongly Synergistic (greater than 10 are considered strongly synergistic)
Average Bliss score ([1]; tumor OD26749, Lung (NSCLC)): 7
Synergy/Additivity/Antagonism ([1]; tumor OD26749, Lung (NSCLC)): Synergistic (greater than 5 are considered synergistic)
Average Bliss score ([1]; tumor OD29498, Lung (NSCLC)): 2
Synergy/Additivity/Antagonism ([1]; tumor OD29498, Lung (NSCLC)): Additive (Values between 5 and −5 are considered additive)
Average Bliss score ([1]; tumor OD33117, Lung (NSCLC)): 9
Synergy/Additivity/Antagonism ([1]; tumor OD33117, Lung (NSCLC)): Synergistic (greater than 5 are considered synergistic)
Average Bliss score ([1]; tumor OD33966, Lung (NSCLC)): 8
Synergy/Additivity/Antagonism ([1]; tumor OD33966, Lung (NSCLC)): Synergistic (greater than 5 are considered synergistic)
Average Bliss score ([1]; tumor OD35982, Lung (NSCLC)): 5
Synergy/Additivity/Antagonism ([1]; tumor OD35982, Lung (NSCLC)): Additive (Values between 5 and −5 are considered additive)
Average Bliss score ([1]; tumor OD36088, Lung (NSCLC)): 14
Synergy/Additivity/Antagonism ([1]; tumor OD36088, Lung (NSCLC)): Strongly Synergistic (greater than 10 are considered strongly synergistic)
Average Bliss score ([1]; tumor TS110310, Lung (NSCLC)): 16
Synergy/Additivity/Antagonism ([1]; tumor TS110310, Lung (NSCLC)): Strongly Synergistic (greater than 10 are considered strongly synergistic)
Average Bliss score ([1]; tumor YAS111611, Lung (NSCLC)): 1
Synergy/Additivity/Antagonism ([1]; tumor YAS111611, Lung (NSCLC)): Additive (Values between 5 and −5 are considered additive)
pH2AX level, max increase as compared to etoposide treatment alone [2]: 2 fold
pKAP1 level, max increase as compared to etoposide treatment alone [2]: 7 fold

Source: US11980633B2, “Method for treating cancer using a combination of DNA-damaging agents and DNA-PK inhibitors” (Vertex Pharmaceuticals Incorporated, priority 2016, dated 2024)
